Data set [1] has as its system human renal proximal tubular epithelial cells (hRPTECs). As to the kind of experiment: hRPTEC cell viability (MTT assay) with iodixanol. Type of data set: cell-based. As to conditions: iodixanol 50 mgI/mL, 24 h; PGE1 100 ng/mL, PGE2 100 nM vs CM vehicle; CM vs normal control.
Procedure: 3-(4,5-Dimethyl thiazol-2-yl)-2,5-diphenyl tetrazolium bromide (MTT) assay was used to assess cell viability. The hRPTECs were cultivated in 96-well plates at a density of 10^5 cells/mL and then incubated for 24 h. […] Then, 10 µM MTT (Sigma-Aldrich) was added to each well for an additional 4 h. The blue MTT formazan precipitate was dissolved in 100 mL dimethyl sulfoxide. The absorbance at 540 nm was measured with a multi-well plate reader. Cell viability was expressed as a percentage of the no-treatment cells, as the mean value±standard deviation of the six independent experiments.
The conditions of data set [2]: rapidly degraded by 15-PGDH; cited from earlier work.
Data set [3] concerns contrast-induced acute kidney injury (CIAKI) mice. As to the kind of experiment: CIAKI mouse model: AMP and adenosine levels in renal tissue. Type of data set: in vivo, C57/BL6 mice. The settings on record: 48 h after CM. How it is done:
48 h after CM administration, serum and kidney tissues were harvested. The adenosine levels in the serum and kidney tissues were measured using high-performance liquid chromatography.

Data set [4] shares this test system. As to the kind of experiment: CIAKI mouse model: renal blood flow (laser Doppler flux). Type of data set: in vivo, C57/BL6 mice. The settings on record: CM + drug, 48 h after CM. How it is done: Total RBF was assessed by measuring renal Doppler flux using noninvasive laser Doppler flowmetry (PeriFlux System 5000, Perimed AB, Sweden). Laser Doppler probes were placed on the kidney surface to measure the renal flux. The flux was measured 48 h after CM administration. The relative increase represented the percentage increase in renal blood flow from baseline to peak for each test. Statistical significance was set as p<0.05.

Data set [5] has the same test system. As to the kind of experiment: CIAKI mouse model: necrotic and apoptotic cell death, gross findings. The settings on record: 48 h after CM. Type of data set: in vivo, C57/BL6 mice. As to the method: Kidneys were harvested at 48 h after the CM injection, fixed in 4% phosphate-buffered formalin, and embedded in paraffin. To evaluate necrosis, […] paraffin sections were stained with hematoxylin and eosin. Tubular injury was scored semi-quantitatively according to a system by a pathologist who examined at least 20 separate fields (400× magnification) in the outer medulla, which is the zone most sensitive to ischemic injury. The scoring system was as follows: 0, no damage; 1, patchy isolated unicellular necrosis; 2, tubular necrosis <25%; 3, tubular necrosis 25-50%; and 4, tubular necrosis >50%. At least 20 consecutive high-power fields per section were scored by two operators blind to the details of the experiment. To analyze the frequency of apoptosis, […] paraffin sections were subjected to terminal deoxynucleotidyl transferase-mediated dUTP nick-end labeling (TUNEL) assay (Millipore, Temecula, CA, USA) according to the manufacturer's protocol. Four […] paraffin sections were incubated with the TUNEL reaction mixture at 37° C. for 1 h, followed by incubation with a horseradish peroxidase-conjugated detection antibody. The signals were visualized using diaminobenzidine (Sigma-Aldrich). After counterstaining with Mayer's hematoxylin, TUNEL-positive cells were counted in at least five separate fields (640× magnification) in the outer medulla, and the apoptosis index (%, number of apoptosis cells/total number of cells) was calculated using GENASIS software.

Data set [6] deals with human renal proximal tubular epithelial cells (hRPTECs). The experiment in a line: hRPTEC apoptosis by flow cytometry with iodixanol. In kind it is cell-based. The settings on record: drug with iodixanol 50 mgI/mL, 24 h. How it is done: Human renal proximal tubular epithelial cells (hRPTECs) were purchased from the American Type Culture Collection (#PCS-400-010TM, Manassas, VA, USA). These cells were grown in 75 cm^2 flasks in Renal Epithelial Cell Basal Medium (PCS-400-030TM, ATCCVR) supplemented with Renal Epithelial Cell Growth Kit (PCS-400-040TM, ATCCVR).
After the treatment described in the section above, the hRPTECs were pelleted by centrifugation at 1800 rpm for 10 min and incubated with annexin V fluorescein isothiocyanate and propidium iodide using an Apoptosis Detection Kit I (#556547, BD Biosciences, San Jose, CA, USA) according to the manufacture's instruction. Then quantification was conducted using a FACSC flow cytometer with Cell Quest software (BD Biosciences).

Regarding `CCCCC[C@H](O)/C=C/[C@H]1[C@H](O)CC(=O)[C@@H]1C/C=C\CCCC(=O)O` [PGE2, prostaglandin E2], the “cell viability (MTT), in words” value in data set [1] is given as “did not show any difference”. Also, the estimated half-life entry in data set [2] is reported as “less than 15 s”. Besides, in data set [3], the “AMP level compared to CIAKI mice, in words” value is “increased” and the “adenosine level compared to CIAKI mice, in words” value was “increased”. Moreover, the “RBF (renal Doppler flux)” value in data set [4] is reported as 541.4±22.65. Moreover, in data set [5], the “TUNEL-positive cell proportions vs CIAKI mice, in words” value is “significantly lower” and the “vascular congestion in the outer medullary region (gross findings)” value is “less-congested”. Besides, in data set [5] (CM + drug, score 0-4), the “microscopic renal injury score” value is recorded as 1.55±0.14. Further, in data set [6], the “apoptosis rate of hRPTECs” value came to 19.43±1.38%.

These data come from US12616681B2, “Compositions and methods for treating renal injury” (priority 2019, dated 2026).
